Results taken from patent publication US7939265B2, “Agents for and method of quantifying binding” (Badrilla Limited, priority 2004, dated 2011).
Where no end group is shown, it is not given here. [ ]: non-standard residue; d: D form. pS = N[C@@H](COP(=O)(O)O)C(=O)O

Target: polyclonal antiserum SERCA PS-38
Assay: Peptide inhibition of antiserum SERCA PS-38 binding to antigen
Set-up: species or system rabbit
Conditions: competition against polyclonal antiserum SERCA PS-38
Experimental: Phosphorylated Ca^2+-ATPase peptide on Ser-38 residue (^31KLKERWGS (PO4)NEL^41) was prepared by the CaMKII phosphorylation of peptide ^31KLKERWGSNEL^41. The phosphopeptide was purified to homogeneity by reverse phase high performance liquid chromatography. Peptide was conjugated to keyhole limpet haemocyanin (KLH) using carbodiimide cross linkage (3) and dialysed extensively against buffer (50 mM Tris-HCl pH 7.2, 150 mM NaCl). Adult New Zealand White rabbits were immunised with ˜150 μg KLH and attached peptide at 6 weeks intervals and immune serum collected 11 days after immunisations. Serum was prepared and stored at −70° C. A polyclonal antiserum is described herein: SERCA PS-38 raised to the phosphorylated peptide.
The phosphorylation of SERCA2 on Ser-38 has been described as a regulatory feature capable of very significant activation of Ca2+-ATPase activity. This site, although unique to SERCA2, is contained within a segment of the protein which is highly conserved between SERCA1 and SERCA2 particularly from residue 39 onwards. […] By analogy with SERCA1, for which two high resolution structures exist the Ser-38 site of phosphorylation on SERCA2 is predicted to be in a surface exposed, highly mobile segment of the protein. […]

| IC50 (read-out: inhibition of antibody binding to antigen (IC50)) | Substance | interference with antibody:antigen recognition |
| --- | --- | --- |
| 18 nM | 31KLKERWGS(PO4)NEL41 (KLKERWG[pS]NEL; UniProt P16615 31-41, looked up, fragment) [phosphopeptide] | – |
| – | 31KLKERWGSNEL41 (UniProt P16615 31-41, looked up, fragment) [dephosphorylated peptide, equivalent dephosphorylated SERCA2a Ser-38 peptide] | unable to interfere with antibody:antigen recognition |
